Experiments:
Assay in all cases: Bliss excess, mean over the matrix (fraction); higher = more synergy
[1] = tested on: P12-ICHIKAWA (T-Lymphoblastic Leukemia)
Procedure, shortened: (§1)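 Bliss excess equals the observed combination effect minus the expected value EA + EB − EA·EB, where EA and EB are the effects of each agent alone. Combination Emax is the second-highest inhibition within the matrix. Inhibition was scaled from CellTiter-Glo 2.0 luminescence, with 0 set by vehicle wells and 1 by blank wells, after 72 hours of two-drug dosing of cells plated in 1536-well plates.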

[2] = tested on: GR-ST (B-Lymphoblastic Leukemia)
Procedure, shortened: as §1

[3] = tested on: SW1417 (Colorectal Carcinoma)
Procedure, shortened: as §1

WIL2-NS (Non-Cancerous) = tested on: WIL2-NS (Non-Cancerous)
Procedure, shortened: as §1

[4] = tested on: NCI-H1792 (Lung Adenocarcinoma)
Procedure, shortened: as §1

[5] = tested on: BFTC-905 (Bladder Carcinoma)
Procedure, shortened: as §1

[6] = tested on: KARPAS-45 (T-Lymphoblastic Leukemia)
Procedure, shortened: as §1

[7] = tested on: EVSA-T (Breast Carcinoma)
Procedure, shortened: as §1

[8] = tested on: HL-60 (Acute Myeloid Leukemia)
Procedure, shortened: as §1

[9] = tested on: COLO-678 (Colorectal Carcinoma)
Procedure, shortened: as §1

CHP-212 (Neuroblastoma) = tested on: CHP-212 (Neuroblastoma)
Procedure, shortened: as §1

[10] = tested on: PANC-08-13 (Pancreatic Carcinoma)
Procedure, shortened: as §1

[11] = tested on: KYSE-180 (Esophageal Squamous Cell Carcinoma)
Procedure, shortened: as §1

[12] = tested on: MKN28 (Gastric Carcinoma)
Procedure, shortened: as §1

[13] = tested on: TOV-112D (Ovarian Carcinoma)
Procedure, shortened: as §1

[14] = tested on: K-562 (Chronic Myelogenous Leukemia)
Procedure, shortened: as §1

TC-71 (Ewing's Sarcoma) = tested on: TC-71 (Ewing's Sarcoma)
Procedure, shortened: as §1

[15] = tested on: MOLT-16 (T-Lymphoblastic Leukemia)
Procedure, shortened: as §1

[16] = tested on: KM12 (Colorectal Carcinoma)
Procedure, shortened: as §1

[17] = tested on: DiFi (Colorectal Carcinoma)
Procedure, shortened: as §1

Structure (SMILES)	Bliss excess [1]	Bliss excess [2]	Bliss excess [3]	Bliss excess (WIL2-NS (Non-Cancerous))	Bliss excess [4]	Bliss excess [5]	Bliss excess [6]	Bliss excess [7]	Bliss excess [8]	Bliss excess [9]	Bliss excess (CHP-212 (Neuroblastoma))	Bliss excess [10]	Bliss excess [11]	Bliss excess [12]	Bliss excess [13]	Bliss excess [14]	Bliss excess (TC-71 (Ewing's Sarcoma))	Bliss excess [15]	Bliss excess [16]	Bliss excess [17]
CN(CCO)CC[C@H](CSc1ccccc1)Nc1ccc(S(=O)(=O)NC(=O)c2ccc(N3CCC([C@@H](O)c4ccccc4-c4ccc(Cl)cc4)CC3)cc2)cc1S(=O)(=O)C(F)(F)F [AZD4320] + C[C@@H]1COCCN1C2=NC(=NC(=C2)C3(CC3)[S@](=N)(=O)C)C4=C5C=CNC5=NC=C4 [AZD6738] (first compound max 1 µM, 7x7, partner max 10 µM)	-0.0133	-0.0413	-0.0757	-0.0004	-0.0647	-0.0286	-0.0069	-0.0105	-0.0348	-0.0616	-0.0496	-0.019	-0.0042	-0.0528	0.0134	-0.0245	0.075	-0.0095	-0.0272	-0.0044
CC(=O)c1c(C)c2cnc(Nc3ccc(N4CCNCC4)cn3)nc2n(C2CCCC2)c1=O [Palbociclib] + Cn1cnc2c(F)c(Nc3ccc(Br)cc3Cl)c(C(=O)NOCCO)cc21 [Selumetinib] (first compound max 10 µM, 7x7, partner max 10 µM)	0.138	0.0333	-0.0094	-0.0133	0.119	0.0595	0.0636	-0.0035	0.0109	-0.071	-0.0313	-0.0053	-0.0135	0.0275	0.068	0.0221	-0.012	-0.0133	0.0039	0.0274
C[C@@H](c1ccc2nccn2c1)n1nnc2ncc(-c3cnn(C)c3)nc21 [Savolitinib] + CC1(C)CCC(CN2CCN(c3ccc(C(=O)NS(=O)(=O)c4ccc(NCC5CCOCC5)c([N+](=O)[O-])c4)c(Oc4cnc5[nH]ccc5c4)c3)CC2)=C(c2ccc(Cl)cc2)C1 [Venetoclax] (first compound max 1 µM, 7x7, partner max 1 µM)	-0.0414	-0.0073	-0.0509	-0.0285	-0.0597	-0.0416	-0.017	-0.0269	-0.0202	-0.112	-0.0707	-0.0436	-0.0326	-0.0464	-0.0489	-0.0187	-0.0517	-0.0788	-0.0559	-0.0468
NC1(C(=O)N[C@@H](CCO)c2ccc(Cl)cc2)CCN(c2ncnc3[nH]ccc23)CC1 [Capivasertib] + CC(C)n1c(=O)n(C)c2cnc3cc(F)c(-c4ccc(OCCCN5CCCCC5)nc4)cc3c21 [AZD1390] (first compound max 10 µM, 7x7, partner max 0.3 µM)	-0.018	-0.0449	-0.0394	-0.0379	-0.0625	-0.0329	-0.0374	-0.0326	-0.0656	-0.0754	-0.0965	-0.0908	-0.0509	-0.0634	-0.0276	0.0077	-0.0567	-0.0658	-0.0399	-0.0436
CN(CCO)CC[C@H](CSc1ccccc1)Nc1ccc(S(=O)(=O)NC(=O)c2ccc(N3CCC([C@@H](O)c4ccccc4-c4ccc(Cl)cc4)CC3)cc2)cc1S(=O)(=O)C(F)(F)F [AZD4320] + CN(C)CCCOc1ccc(-c2ccc3ncc4c(c3c2)n(C2CCOCC2)c(=O)n4C)cn1 [AZD0156] (first compound max 1 µM, 7x7, partner max 1 µM)	0.024	-0.0358	-0.0567	0.0109	-0.0144	-0.017	-0.0326	-0.0125	0.0228	-0.081	-0.056	-0.0051	-0.0037	-0.0429	-0.0078	-0.0027	-0.0112	-0.0592	-0.0489	0.0046
CN(CCO)CC[C@H](CSc1ccccc1)Nc1ccc(S(=O)(=O)NC(=O)c2ccc(N3CCC([C@@H](O)c4ccccc4-c4ccc(Cl)cc4)CC3)cc2)cc1S(=O)(=O)C(F)(F)F [AZD4320] + C1CN(CCC1(C(=O)N[C@@H](CCO)C2=CC=C(C=C2)Cl)N)C3=NC=NC4=C3C=CN4 [Capivasertib] (first compound max 1 µM, 7x7, partner max 3 µM)	0.0119	0.0039	-0.0671	0.0219	-0.0643	-0.0552	0.0265	-0.0161	-0.0438	-0.0741	-0.0667	-0.0374	-0.0057	-0.0404	-0.0183	-0.0155	-0.0699	-0.0201	-0.0572	-0.0475
Cc1c2c(nn1C)CSCc1cc(n(C)n1)CSc1cc(c3ccccc3c1)OCCCc1c(C(=O)O)n(C)c3c-2c(Cl)ccc13 [AZD5991] + Cn1cnc2c(F)c(Nc3ccc(Br)cc3Cl)c(C(=O)NOCCO)cc21 [Selumetinib] (first compound max 1 µM, 7x7, partner max 3 µM)	0.0419	-0.0495	-0.0015	-0.0263	0.0347	0.0136	0.011	0.0136	0.0587	-0.0226	-0.0136	0.0025	0.0341	-0.0063	0.0038	0.0393	0.093	-0.0205	-0.0063	0.0064

Source: the supplement of paper PMC11061612
